{"source": "patent US12545652B2", "about": "“Crystalline forms of a TYK2 inhibitor” (Sareum Limited, priority 2020, dated 2026)", "assay_type_in_all_cases": "physicochemical", "key": {"[1]": {"test": "Solubility at 25° C. by HPLC of filtrates after equilibration of Form A in solvents", "settings": "for solubility: 25 °C, organic solvent or mixture, thermodynamic from solid"}, "[2]": {"test": "Dynamic vapour sorption (DVS)", "settings": "25° C.", "description": "Sorption isotherms were obtained using a Hiden Isochema moisture sorption analyser (model IGAsorp), controlled by IGAsorp Systems Software V6.50.48. The sample was maintained at a constant temperature (25° C.) by the instrument controls. The humidity was controlled by mixing streams of dry and wet nitrogen, with a total flow of 250 ml·min^−1. The instrument was verified for relative humidity content by measuring three calibrated Rotronic salt solutions (10-50-88%). The weight change of the sample was monitored as a function of humidity by a microbalance (accuracy +/−0.005 mg). A defined amount of sample was placed in a tared mesh stainless steel basket under ambient conditions. A full experimental cycle typically consisted of three scans (sorption, desorption and sorption) at a constant temperature (25° C.) and 10% RH intervals over a 0-90% range (60 minutes for each humidity level)."}, "[3]": {"test": "Anti-solvent addition crystallisation at 60° C., observations and form fate by XRPD", "description": "The equilibration of Form A in a range of solvents with thermal modulation indicated a range of suitable solvents and anti-solvents. Consequently, Form A was dissolved in a range of four solvents at an elevated temperature, clarified and charged with anti-solvent at the elevated temperature to assess the propensity of the compound towards anti-solvent-driven crystallisation.\n2-(2,6-dichlorophenyl)-5-[4-(1,1-dioxo-1,4-thiazinane-4-carbonyl)anilino]oxazole-4-carboxamide Form A, 4×150-152 mg, was weighed into four crystallisation tubes. Four different solvents (see Table 8) were then charged to the solids and the resulting mixtures heated to 60° C. Where suspensions persisted, additional solvent was charged to achieve dissolution. Upon dissolution of the four mixtures, the solutions were clarified and aliquots containing ca. 30 mg of the compound were charged to four crystallisation tubes.\nTo each of the four aliquots was charged an anti-solvent (see Table 8), ca. 5 vol., at 60° C. and immediate observations were made. Observations were made after equilibration for 1 hour before additional anti-solvent, 5 vol., was charged to all mixtures. Where suspensions or immiscible mixtures had formed, no further anti-solvent was charged. To all solutions and hazes, additional anti-solvent up to 20 vol. total charge was added.\nThe mixtures were equilibrated at 60° C. for another hour before cooling to 25° C. over ca. 3 hours and equilibrated for ca. 14½ hours. […] Upon isolation, all solids were dried in vacuo under air for ca. 1 hour and then dried in the oven in vacuo at 45° C. for 70 hours."}}, "data": [{"smiles": "NC(=O)c1nc(-c2c(Cl)cccc2Cl)oc1Nc1ccc(C(=O)N2CCS(=O)(=O)CC2)cc1", "note": "[Form A, 2-(2,6-dichlorophenyl)-5-[4-(1,1-dioxo-1,4-thiazinane-4-carbonyl)anilino]oxazole-4-carboxamide]", "values": [{"measurement": "Solubility at 25° C.", "setting": "[1]; 2-Chlorobutane", "value": 290, "unit": "µg/mL"}, {"measurement": "solubility", "setting": "[1]; 4:1 IPA/water, 4:1 IPA/water", "value": 7650, "unit": "µg/mL"}, {"measurement": "solubility", "setting": "[1]; 4:1 MeCN/water, 4:1 MeCN/water", "value": 19800, "unit": "µg/mL"}, {"measurement": "Solubility at 25° C.", "setting": "[1]; 4:1 THF/water", "value": ">67000", "unit": "µg/mL"}, {"measurement": "Solubility at 25° C.", "setting": "[1]; Anisole", "value": 10610, "unit": "µg/mL"}, {"measurement": "solubility", "setting": "[1]; CPME", "value": 1870, "unit": "µg/mL"}, {"measurement": "Solubility at 25° C.", "setting": "[1]; Cyclohexane", "value": 10, "unit": "µg/mL"}, {"measurement": "Solubility at 25° C.", "setting": "[1]; DCM", "value": 22830, "unit": "µg/mL"}, {"measurement": "solubility", "setting": "[1]; EtOAc", "value": 6640, "unit": "µg/mL"}, {"measurement": "solubility", "setting": "[1]; EtOH", "value": 5200, "unit": "µg/mL"}, {"measurement": "solubility", "setting": "[1]; IPA", "value": 2450, "unit": "µg/mL"}, {"measurement": "solubility", "setting": "[1]; MEK", "value": 6080, "unit": "µg/mL"}, {"measurement": "solubility", "setting": "[1]; MIBK", "value": 7400, "unit": "µg/mL"}, {"measurement": "solubility", "setting": "[1]; MeCN", "value": 9160, "unit": "µg/mL"}, {"measurement": "solubility", "setting": "[1]; MeOH", "value": 2520, "unit": "µg/mL"}, {"measurement": "Solubility at 25° C.", "setting": "[1]; Nitromethane", "value": 20520, "unit": "µg/mL"}, {"measurement": "Solubility at 25° C.", "setting": "[1]; TBME", "value": 700, "unit": "µg/mL"}, {"measurement": "Solubility at 25° C.", "setting": "[1]; THF", "value": 33300, "unit": "µg/mL"}, {"measurement": "Solubility at 25° C.", "setting": "[1]; Water", "value": 60, "unit": "µg/mL"}, {"measurement": "solubility", "setting": "[1]; benzotrifluoride", "value": 160, "unit": "µg/mL"}, {"measurement": "solubility", "setting": "[1]; chlorobenzene", "value": 1870, "unit": "µg/mL"}, {"measurement": "solubility", "setting": "[1]; iPrOAc", "value": 6960, "unit": "µg/mL"}, {"measurement": "solubility", "setting": "[1]; toluene", "value": 1120, "unit": "µg/mL"}, {"measurement": "DVS total weight gain upon sorption", "setting": "[2]; from 0 to 90% RH", "value": "ca. 3.25 wt %"}, {"measurement": "DVS weight reduction upon the first desorption", "setting": "[2]; from 50 to 0% RH", "value": "ca. 2.75 wt %"}, {"measurement": "Observation on outcome", "setting": "[3]; ID A1, THF/water, 4:1 10 vol., Cyclohexane, 25° C., 20 vol, 19 Hrs", "value": "Susp."}, {"measurement": "Observation on outcome", "setting": "[3]; ID A1, THF/water, 4:1 10 vol., Cyclohexane, 60° C., 5 vol. anti-solvent, 1 Hr", "value": "Susp."}, {"measurement": "Observation on outcome", "setting": "[3]; ID A1, THF/water, 4:1 10 vol., Cyclohexane, 60° C., 5 vol. anti-solvent, Immediate", "value": "Gum"}, {"measurement": "Observation on outcome", "setting": "[3]; ID A1, THF/water, 4:1 10 vol., Cyclohexane, 60° C., 10 vol. anti-solvent", "value": "Susp."}, {"measurement": "Observation on outcome", "setting": "[3]; ID A2, THF/water, 4:1 10 vol., Heptane, 25° C., 20 vol, 19 Hrs", "value": "Gummy"}, {"measurement": "Observation on outcome", "setting": "[3]; ID A2, THF/water, 4:1 10 vol., Heptane, 60° C., 5 vol. anti-solvent, 1 Hr", "value": "Susp."}, {"measurement": "Observation on outcome", "setting": "[3]; ID A2, THF/water, 4:1 10 vol., Heptane, 60° C., 5 vol. anti-solvent, Immediate", "value": "Gum"}, {"measurement": "Observation on outcome", "setting": "[3]; ID A2, THF/water, 4:1 10 vol., Heptane, 60° C., 10 vol. anti-solvent", "value": "Susp."}, {"measurement": "Observation on outcome", "setting": "[3]; ID A3, THF/water, 4:1 10 vol., Benzotrifluoride, 25° C., 20 vol, 19 Hrs", "value": "Susp."}, {"measurement": "Observation on outcome", "setting": "[3]; ID A3, THF/water, 4:1 10 vol., Benzotrifluoride, 60° C., 5 vol. anti-solvent, 1 Hr", "value": "Susp."}, {"measurement": "Observation on outcome", "setting": "[3]; ID A3, THF/water, 4:1 10 vol., Benzotrifluoride, 60° C., 5 vol. anti-solvent, Immediate", "value": "Susp."}, {"measurement": "Observation on outcome", "setting": "[3]; ID A3, THF/water, 4:1 10 vol., Benzotrifluoride, 60° C., 10 vol. anti-solvent", "value": "Susp."}, {"measurement": "Observation on outcome", "setting": "[3]; ID A4, THF/water, 4:1 10 vol., 2-Chlorobutane, 25° C., 20 vol, 19 Hrs", "value": "Susp."}, {"measurement": "Observation on outcome", "setting": "[3]; ID A4, THF/water, 4:1 10 vol., 2-Chlorobutane, 60° C., 5 vol. anti-solvent, 1 Hr", "value": "Susp."}, {"measurement": "Observation on outcome", "setting": "[3]; ID A4, THF/water, 4:1 10 vol., 2-Chlorobutane, 60° C., 5 vol. anti-solvent, Immediate", "value": "Susp."}, {"measurement": "Observation on outcome", "setting": "[3]; ID A4, THF/water, 4:1 10 vol., 2-Chlorobutane, 60° C., 10 vol. anti-solvent", "value": "Susp."}, {"measurement": "Observation on outcome", "setting": "[3]; ID B1, THF 25 vol., Cyclohexane, 25° C., 20 vol, 19 Hrs", "value": "Susp."}, {"measurement": "Observation on outcome", "setting": "[3]; ID B1, THF 25 vol., Cyclohexane, 60° C., 5 vol. anti-solvent, 1 Hr", "value": "Susp."}, {"measurement": "Observation on outcome", "setting": "[3]; ID B1, THF 25 vol., Cyclohexane, 60° C., 5 vol. anti-solvent, Immediate", "value": "Gum→Soln."}, {"measurement": "Observation on outcome", "setting": "[3]; ID B1, THF 25 vol., Cyclohexane, 60° C., 10 vol. anti-solvent", "value": "Susp."}, {"measurement": "Observation on outcome", "setting": "[3]; ID B2, THF 25 vol., Heptane, 25° C., 20 vol, 19 Hrs", "value": "Susp."}, {"measurement": "Observation on outcome", "setting": "[3]; ID B2, THF 25 vol., Heptane, 60° C., 5 vol. anti-solvent, 1 Hr", "value": "Susp."}, {"measurement": "Observation on outcome", "setting": "[3]; ID B2, THF 25 vol., Heptane, 60° C., 5 vol. anti-solvent, Immediate", "value": "Gum→Soln."}, {"measurement": "Observation on outcome", "setting": "[3]; ID B2, THF 25 vol., Heptane, 60° C., 10 vol. anti-solvent", "value": "Susp."}, {"measurement": "Observation on outcome", "setting": "[3]; ID B3, THF 25 vol., Benzotrifluoride, 25° C., 20 vol, 19 Hrs", "value": "Susp."}, {"measurement": "Observation on outcome", "setting": "[3]; ID B3, THF 25 vol., Benzotrifluoride, 60° C., 5 vol. anti-solvent, 1 Hr", "value": "Susp."}, {"measurement": "Observation on outcome", "setting": "[3]; ID B3, THF 25 vol., Benzotrifluoride, 60° C., 5 vol. anti-solvent, Immediate", "value": "Soln."}, {"measurement": "Observation on outcome", "setting": "[3]; ID B3, THF 25 vol., Benzotrifluoride, 60° C., 10 vol. anti-solvent", "value": "Susp."}, {"measurement": "Observation on outcome", "setting": "[3]; ID B4, THF 25 vol., 2-Chlorobutane, 25° C., 20 vol, 19 Hrs", "value": "Susp."}, {"measurement": "Observation on outcome", "setting": "[3]; ID B4, THF 25 vol., 2-Chlorobutane, 60° C., 5 vol. anti-solvent, 1 Hr", "value": "Susp."}]}]}
